For assay [1], the target named is histamine receptor H1 (Homo sapiens, UniProt P35367). Kind of assay: Histamine H1 radioligand binding ([3H]Pyrilamine). The conditions noted are these: read-out: Histamine Binding (1 μM) H1, percent inhibition of specific binding, 1 μM. As to the method:
To evaluate in radioligand binding assays the activity of compounds of the invention, human recombinant histamine H1 receptor expressed in Chinese hamster ovary (CHO) cells (De Backer, M. D. et al., Biochem. Biophys. Res. Comm. 197(3):1601, 1993) in a modified Tris-HCl buffer (50 mM Tris-HCl, pH 7.4, 2 mM MgCl2, 100 mM NaCl, 250 mM Sucrose) was used. Compounds of the invention were incubated with 1.2 nM [^3H]Pyrilamine for 180 min. at 25° C. Non-specific binding was estimated in the presence of 1 μM pyrilamine. Receptor proteins were filtered and washed, the filters were then counted to determine [^3H]Pyrilamine specifically bound. Compounds were screened at 1 μM or lower, using 1% DMSO as vehicle. Biochemical assay results are presented as the percent inhibition of specific binding in Table 8.

For assay [2], the target named is human dopamine D2L receptor (Homo sapiens, UniProt P14416). The assay can be described thus: Dopamine D2L radioligand binding ([3H]Spiperone). As to conditions: compound at 1 μM. The source says: Non-specific binding was estimated in the presence of […] Haloperidol. Receptor proteins were filtered and washed, the filters were then counted to determine [^3H]Spiperone specifically bound. […] Biochemical assay results are presented as the percent inhibition of specific binding in Table 9.

The mark [3] stands for this setting: […] [3H]Spiperone, read-out: Inhibition of ligand binding, Dopamine D2L (percent inhibition of specific binding).

By inhibition is commonly meant the relative decrease from the control value, in per cent.

Where two headings read alike, the source gives them in different places.

Chain of human dopamine D2L receptor (P14416 whole entry): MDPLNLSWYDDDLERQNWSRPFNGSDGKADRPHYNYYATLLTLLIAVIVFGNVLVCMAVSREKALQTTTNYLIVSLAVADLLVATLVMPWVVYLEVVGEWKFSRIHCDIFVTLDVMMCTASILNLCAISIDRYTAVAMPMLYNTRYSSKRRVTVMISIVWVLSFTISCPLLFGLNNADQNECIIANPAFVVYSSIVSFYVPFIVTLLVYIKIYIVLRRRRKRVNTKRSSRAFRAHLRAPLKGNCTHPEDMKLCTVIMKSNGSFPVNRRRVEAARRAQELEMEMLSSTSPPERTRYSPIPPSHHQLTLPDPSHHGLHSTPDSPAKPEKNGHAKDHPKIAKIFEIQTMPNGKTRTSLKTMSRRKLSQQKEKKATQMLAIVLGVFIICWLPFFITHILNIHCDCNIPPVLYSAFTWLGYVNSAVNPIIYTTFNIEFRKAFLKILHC
Chain of histamine receptor H1 (P35367 whole entry): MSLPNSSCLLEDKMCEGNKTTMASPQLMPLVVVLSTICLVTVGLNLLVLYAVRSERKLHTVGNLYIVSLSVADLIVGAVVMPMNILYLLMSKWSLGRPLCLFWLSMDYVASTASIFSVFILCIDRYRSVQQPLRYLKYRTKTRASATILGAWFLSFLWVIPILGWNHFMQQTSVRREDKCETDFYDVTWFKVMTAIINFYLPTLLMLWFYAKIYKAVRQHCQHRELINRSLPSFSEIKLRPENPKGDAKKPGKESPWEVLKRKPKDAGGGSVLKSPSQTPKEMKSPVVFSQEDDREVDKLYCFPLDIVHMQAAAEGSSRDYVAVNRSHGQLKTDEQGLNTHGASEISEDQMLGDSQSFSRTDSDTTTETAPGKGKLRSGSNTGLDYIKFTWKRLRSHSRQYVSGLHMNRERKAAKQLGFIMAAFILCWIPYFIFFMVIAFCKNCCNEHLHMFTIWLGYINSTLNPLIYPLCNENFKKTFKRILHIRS

For `COc1ccc(/C(F)=C/n2c3c(c4cc(C)ccc42)CN(C)CC3)cn1` [compound 430, (Z)-5-(2-fluoro-2-(6-methoxypyridin-3-yl)vinyl)-2,8-dimethyl-2,3,4,5-tetrahydro-1H-pyrido[4,3-b]indole], the figures for the inhibition at 1 µM in assay [1] and in assay [2] (setting [3]) were 72% and 25%, respectively.

As for `C=C(Cn1c2c(c3cccc(F)c31)CN(C)CC2)c1ccncc1` [Compound No. 363, 6-fluoro-2-methyl-5-(2-(pyridin-4-yl)allyl)-2,3,4,5-tetrahydro-1H-pyrido[4,3-b]indole], the figures for the inhibition at 1 µM in assay [1] and in assay [2] (setting [3]) were 62% and 53%, respectively. As for `CSc1cccc(/C(C)=C/n2c3c(c4cc(C)ccc42)CN(C)CC3)c1` [Compound No. 474, (E)-2,8-dimethyl-5-(2-(3-(methylthio)phenyl)prop-1-enyl)-2,3,4,5-tetrahydro-1H-pyrido[4,3-b]indole], the values for the inhibition at 1 µM in assay [1] and in assay [2] (setting [3]) were 98% and 53%, respectively. `C/C(=C\n1c2c(c3cc(Cl)ccc31)CN(C)CC2)c1cnc(C)cn1` [compound 385, (E)-8-chloro-2-methyl-5-(2-(5-methylpyrazin-2-yl)prop-1-enyl)-2,3,4,5-tetrahydro-1H-pyrido[4,3-b]indole]: the inhibition at 1 µM in assay [1] worked out at 68%; in assay [2] (setting [3]) it was 51%. For the molecule `C/C(=C\n1c2c(c3cc(C)ccc31)CN(C)CC2)c1ccc(S(C)(=O)=O)cc1` [Compound No. 462, (E)-2,8-dimethyl-5-(2-(4-(methylsulfonyl)phenyl)prop-1-enyl)-2,3,4,5-tetrahydro-1H-pyrido[4,3-b]indole], the results for the inhibition at 1 µM in assay [1] and in assay [2] (setting [3]) were 32% and 76%, respectively.

For the molecule `C/C(=C/n1c2c(c3cc(Cl)ccc31)CN(C)CC2)c1ccc(F)cc1` [compound 397, (Z)-8-chloro-5-(2-(4-fluorophenyl)prop-1-enyl)-2-methyl-2,3,4,5-tetrahydro-1H-pyrido[4,3-b]indole], the inhibition at 1 µM came to 89% in assay [1] and 80% in assay [2] (setting [3]). For the molecule `C/C(=C(/C)n1c2c(c3cc(C)ccc31)CN(C)CC2)c1ccncc1` [compound 403, (E)-2,8-dimethyl-5-(3-(pyridin-4-yl)but-2-en-2-yl)-2,3,4,5-tetrahydro-1H-pyrido[4,3-b]indole], the values for the inhibition at 1 µM in assay [1] and in assay [2] (setting [3]) were 37% and 66%, respectively.

Regarding `CC(O)(Cn1c2c(c3cc(Cl)ccc31)CN(CCCC(=O)c1ccc(F)cc1)CC2)c1ccncc1` (stereo not shown) [Compound No. 464, 4-(8-chloro-5-(2-hydroxy-2-(pyridin-4-yl)propyl)-3,4-dihydro-1H-pyrido[4,3-b]indol-2(5H)-yl)-1-(4-fluorophenyl)butan-1-one], the inhibition at 1 µM was found to be 66% in assay [1] and 93% in assay [2] (setting [3]). The matching figures for `C/C(=C\n1c2c(c3cc(Cl)ccc31)CNCC2)c1ccncc1` [compound 402, (E)-8-chloro-5-(2-(pyridin-4-yl)prop-1-enyl)-2,3,4,5-tetrahydro-1H-pyrido[4,3-b]indole]: 15% and 87%. The corresponding values for `C=CCN1CCc2c(c3cc(C)ccc3n2/C=C(\C)c2ccncc2)C1` [compound 405, (E)-2-allyl-8-methyl-5-(2-(pyridin-4-yl)prop-1-enyl)-2,3,4,5-tetrahydro-1H-pyrido[4,3-b]indole] are 67% and 88%. The matching figures for `C=C(Cn1c2c(c3cc(C)ccc31)CN(C)CC2)c1cnccn1` [Compound No. 364, 2,8-dimethyl-5-(2-(pyrazin-2-yl)allyl)-2,3,4,5-tetrahydro-1H-pyrido[4,3-b]indole]: 95% and 27%. As to `CO/C(=C(/C)n1c2c(c3cc(C)ccc31)CN(C)CC2)c1ccncc1` [compound 418, (Z)-5-(1-methoxy-1-(pyridin-4-yl)prop-1-en-2-yl)-2,8-dimethyl-2,3,4,5-tetrahydro-1H-pyrido[4,3-b]indole], the inhibition at 1 µM in assay [1] stood at 33%; in assay [2] (setting [3]) it was 14%.

As to `C/C(=C\c1ccccc1)n1c2c(c3cc(C)ccc31)CN(C)CC2` [compound 428, (E)-2,8-dimethyl-5-(1-phenylprop-1-en-2-yl)-2,3,4,5-tetrahydro-1H-pyrido[4,3-b]indole], the inhibition at 1 µM in assay [1] worked out at 97%; in assay [2] (setting [3]) it was 57%.

In the case of `C/C(=C/n1c2c(c3cc(C)ccc31)CN(C)CC2)C1CCCCC1` [Compound 368, (Z)-5-(2-cyclohexylprop-1-enyl)-2,8-dimethyl-2,3,4,5-tetrahydro-1H-pyrido[4,3-b]indole], the inhibition at 1 µM came to 82% in assay [1] and 74% in assay [2] (setting [3]).

For the molecule `Cc1ccc2c(c1)c1c(n2CC(C)(O)c2ccncc2)CC(C)N(C)C1` (stereo not shown) [Compound 345, 2-(pyridin-4-yl)-1-(2,3,8-trimethyl-3,4-dihydro-1H-pyrido[4,3-b]indol-5(2H)-yl)propan-2-ol], the inhibition at 1 µM in assay [1] stood at 56%; in assay [2] (percent inhibition of specific binding, read-out: Inhibition of ligand binding, Dopamine D2L) it was 15%. As for `Cc1ccc2c(c1)c1c(n2/C=C(/c2ccccc2)c2ccncc2)CCN(C)C1` [compound 453, (Z)-2,8-dimethyl-5-(2-phenyl-2-(pyridin-4-yl)vinyl)-2,3,4,5-tetrahydro-1H-pyrido[4,3-b]indole], the inhibition at 1 µM in assay [1] was 26%; in assay [2] (setting [3]), 51%.

For the molecule `C/C(=C\n1c2c(c3cc(N4CCCC4)ccc31)CN(C)CC2)c1ccncc1` [compound 446, (E)-2-methyl-5-(2-(pyridin-4-yl)prop-1-enyl)-8-(pyrrolidin-1-yl)-2,3,4,5-tetrahydro-1H-pyrido[4,3-b]indole], the inhibition at 1 µM in assay [1] is -4%; in assay [2] (setting [3]), 42%.

Turning to `Cc1ccc2c(c1)c1c(n2/C(=C(/F)c2ccncc2)c2ccncc2)CCN(C)C1` [compound 425, (E)-5-(2-fluoro-1,2-di(pyridin-4-yl)vinyl)-2,8-dimethyl-2,3,4,5-tetrahydro-1H-pyrido[4,3-b]indole], the inhibition at 1 µM in assay [1] was 4%; in assay [2] (setting [3]), 6%.

Consider `C/C(=C\n1c2c(c3cc(C)ccc31)CN(C)CC2)c1cccc(C(=O)N(C)C)c1` [compound 457, (E)-3-(1-(2,8-dimethyl-3,4-dihydro-1H-pyrido[4,3-b]indol-5(2H)-yl)prop-1-en-2-yl)-N,N-dimethylbenzamide], for which the inhibition at 1 µM in assay [1] worked out at 37%; in assay [2] (setting [3]) it was 53%. As to `CCCCNc1ccc2c(c1)c1c(n2/C=C(\C)c2ccncc2)CCN(C)C1` [compound 444, (E)-N-butyl-2-methyl-5-(2-(pyridin-4-yl)prop-1-enyl)-2,3,4,5-tetrahydro-1H-pyrido[4,3-b]indol-8-amine], the values for the inhibition at 1 µM in assay [1] and in assay [2] (setting [3]) were -13% and 36%, respectively.

With `C/C(=C\n1c2c(c3cc(Cl)ccc31)CN(C)[C@@H](C)C2)c1ccncc1` [compound 391, (S,E)-8-chloro-2,3-dimethyl-5-(2-(pyridin-4-yl)prop-1-enyl)-2,3,4,5-tetrahydro-1H-pyrido[4,3-b]indole], the inhibition at 1 µM in assay [1] came out at 84%; in assay [2] (setting [3]), 72%. With `C/C(=C\n1c2c(c3cc(C)ccc31)CN(C)CC2)c1cc(Cl)cc(Cl)c1` [compound 410, (E)-5-(2-(3,5-dichlorophenyl)prop-1-enyl)-2,8-dimethyl-2,3,4,5-tetrahydro-1H-pyrido[4,3-b]indole], the inhibition at 1 µM in assay [2] (setting [3]) amounted to 47%.

The values above are taken from patent publication US8906925B2, “Pyrido[4,3-B]indoles containing rigid moieties” (Medivation Technologies, Inc., priority 2008, dated 2014).
